In assay [1] the target is Beta Secretase enzyme (BACE) (Homo sapiens, UniProt P56817). Description: In vitro enzymatic BACE FRET (fluorescence resonance energy transfer) assay. Format: biochemical. Conditions: average IC50, enzyme assay; read-out: BACE 1 FRET assay. The method in brief:
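A peptide bearing a fluorophore and quencher across the cleavage site serves as substrate at 50 nM. Reactions proceed one hour in acidic acetate buffer (0.05 M, pH 4.2) containing 10% DMSO final and 100 uM genapol, then are terminated with Tris and read fluorimetrically.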

In assay [2] the test system is Aβ40 in conditioned medium of cells stably expressing Amyloid Precursor Protein (APP). Description: In vitro BACE cell-based assay (Aβ40 in conditioned medium, sandwich ELISA). The conditions noted are these: Homo sapiens, HEK293, average IC50; read-out: HEK cell assay. The method in brief:
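Step two: 10-point compound titration added, starting 100 μM or 10 μM, 0.1% DMSO. Step three: medium Aβ40 measured by ELISA, capture 3 h and detection 2 h at 4° C, TRF read.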

Chain of Beta Secretase enzyme (BACE) (P56817 46-501, species assumed): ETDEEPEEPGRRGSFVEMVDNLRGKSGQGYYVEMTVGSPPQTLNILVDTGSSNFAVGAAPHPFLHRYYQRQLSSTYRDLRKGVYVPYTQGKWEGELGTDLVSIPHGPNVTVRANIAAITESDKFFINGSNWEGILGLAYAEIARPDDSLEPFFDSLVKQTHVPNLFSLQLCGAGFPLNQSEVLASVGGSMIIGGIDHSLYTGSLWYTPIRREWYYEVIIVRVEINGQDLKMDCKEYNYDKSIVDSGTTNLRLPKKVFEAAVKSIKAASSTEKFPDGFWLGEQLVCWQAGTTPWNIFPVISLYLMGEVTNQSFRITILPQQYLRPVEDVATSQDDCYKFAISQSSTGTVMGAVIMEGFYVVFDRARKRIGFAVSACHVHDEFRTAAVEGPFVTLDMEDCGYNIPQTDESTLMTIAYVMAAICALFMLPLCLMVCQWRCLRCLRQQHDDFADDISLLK

For the compound `NC1=N[C@@]2(CO1)c1cc(-c3cncc(F)c3)ccc1Oc1c(F)cc(C3=CCOC3)cc12` [Example 288, (4S)-2′-(2,5-dihydro-3-furanyl)-4′-fluoro-7′-(5-fluoro-3-pyridinyl)spiro[1,3-oxazole-4,9′-xanthen]-2-amine], the results for the IC50 in assay [1] and in assay [2] were 0.3 nM and 4.1 nM, respectively.

As for `NC1=N[C@@]2(CO1)c1cc(-c3ccc(F)nc3)ccc1Oc1c(F)cc(-c3ncccn3)cc12` [Example 289, (4S)-4′-fluoro-7′-(6-fluoro-3-pyridinyl)-2′-(2-pyrimidinyl)spiro[1,3-oxazole-4,9′-xanthen]-2-amine], the IC50 stood at 2.5 nM in assay [1] and 14.6 nM in assay [2].

For the compound `COc1ccc(-c2cc(F)c3c(c2)[C@]2(COC(N)=N2)c2cc(-c4cncc(F)c4)ccc2O3)nn1` [Example 290, (4S)-4′-fluoro-7′-(5-fluoro-3-pyridinyl)-2′-(6-methoxy-3-pyridazinyl)spiro[1,3-oxazole-4,9′-xanthen]-2-amine], the IC50 in assay [1] stood at 0.8 nM; in assay [2] it was 8.1 nM.

Regarding `NC1=N[C@@]2(CO1)c1cc(-c3cccnc3F)ccc1Oc1c(F)cc(C3=CCOC3)cc12` [Example 291, (4S)-2′-(2,5-dihydro-3-furanyl)-4′-fluoro-7′-(2-fluoro-3-pyridinyl)spiro[1,3-oxazole-4,9′-xanthen]-2-amine], the IC50 in assay [1] amounted to 0.6 nM; in assay [2], 8 nM.

Take `Cc1ccc(-c2cc(F)c3c(c2)[C@]2(COC(N)=N2)c2cc(-c4cncc(F)c4)ccc2O3)nn1` [Example 292, (4S)-4′-fluoro-7′-(5-fluoro-3-pyridinyl)-2′-(6-methyl-3-pyridazinyl)spiro[1,3-oxazole-4,9′-xanthen]-2-amine]: the IC50 in assay [1] was 2 nM; in assay [2], 31.6 nM.

Consider `COc1ncc(-c2cc(F)c3c(c2)[C@]2(COC(N)=N2)c2cc(-c4cncc(F)c4)ccc2O3)cn1` [Example 293, (4S)-4′-fluoro-7′-(5-fluoro-3-pyridinyl)-2′-(2-methoxy-5-pyrimidinyl)spiro[1,3-oxazole-4,9′-xanthen]-2-amine], for which the IC50 in assay [1] amounted to 7.5 nM; in assay [2], 82.5 nM.

As to `CC1(COc2cc(F)c3c(c2)[C@]2(COC(N)=N2)c2cc(-c4cccnc4)c(F)cc2O3)COC1` [Example 294, (4S)-3′,5′-difluoro-7′-((3-methyl-3-oxetanyl)methoxy)-2′-(3-pyridinyl)spiro[1,3-oxazole-4,9′-xanthen]-2-amine], the IC50 in assay [1] turned out to be 61.1 nM; in assay [2], 612 nM.

Consider `NC1=N[C@@]2(CO1)c1cc(-c3ccc(F)nc3)ccc1Oc1c(F)cc(C3CCOCC3)cc12` [Example 301, (4S)-4′-fluoro-7′-(6-fluoro-3-pyridinyl)-2′-(tetrahydro-2H-pyran-4-yl)spiro[1,3-oxazole-4,9′-xanthen]-2-amine], for which the figures for the IC50 in assay [1] and in assay [2] were 4.8 nM and 15.9 nM, respectively.

For `NC1=N[C@@]2(CO1)c1cc(-c3ccc(F)nc3)ccc1Oc1c(F)cc(N3C[C@@H]4C[C@H]3CO4)cc12` [Example 302, (4S)-4′-fluoro-7′-(6-fluoro-3-pyridinyl)-2′-((1S,4S)-2-oxa-5-azabicyclo[2.2.1]hept-5-yl)spiro[1,3-oxazole-4,9′-xanthen]-2-amine], the IC50 in assay [1] amounted to 3.1 nM; in assay [2], 5.6 nM.

In the case of `C[C@@H]1CN(c2cc(F)c3c(c2)[C@]2(COC(N)=N2)c2cc(-c4cccnc4F)ccc2O3)C[C@H](C)O1` [Example 303, (4S)-2′-((2R,6S)-2,6-dimethyl-4-morpholinyl)-4′-fluoro-7′-(2-fluoro-3-pyridinyl)spiro[1,3-oxazole-4,9′-xanthen]-2-amine], the results for the IC50 in assay [1] and in assay [2] were 2 nM and 6.7 nM, respectively.

With `CC(C)(C)/C=C/c1cc2c(cn1)Oc1cc(F)c(-c3cncnc3)cc1[C@@]21COC(N)=N1` [Example 304, (5S)-3-((1E)-3,3-dimethyl-1-buten-1-yl)-8-fluoro-7-(5-pyrimidinyl)spiro[chromeno[2,3-c]pyridine-5,4′-[1,3]oxazol]-2′-amine], the IC50 in assay [1] came out at 2.1 nM; in assay [2], 23.9 nM.

Consider `CC(C)(C)C#Cc1cc2c(cn1)Oc1cc(F)c(-c3cncnc3)cc1[C@@]21COC(N)=N1` [Example 305, (5S)-3-(3,3-dimethyl-1-butyn-1-yl)-8-fluoro-7-(5-pyrimidinyl)spiro[chromeno[2,3-c]pyridine-5,4′-[1,3]oxazol]-2′-amine], for which the IC50 in assay [1] stood at 9.9 nM; in assay [2] it was 95.8 nM.

For the compound `NC1=N[C@@]2(CO1)c1cc(-c3cccnc3F)ncc1Oc1c(F)cc(C3=CCOCC3)cc12` [Example 306, (5S)-7-(3,6-dihydro-2H-pyran-4-yl)-9-fluoro-3-(2-fluoro-3-pyridinyl)spiro[chromeno[2,3-c]pyridine-5,4′-[1,3]oxazol]-2′-amine], the values for the IC50 in assay [1] and in assay [2] were 1.5 nM and 56.7 nM, respectively.

Consider `NC1=N[C@@]2(CO1)c1cc(-c3cccnc3)ncc1Oc1c(F)cc(C3=CCOCC3)cc12` [Example 307, (5S)-7-(3,6-dihydro-2H-pyran-4-yl)-9-fluoro-3-(3-pyridinyl)spiro[chromeno[2,3-c]pyridine-5,4′-[1,3]oxazol]-2′-amine], for which the figures for the IC50 in assay [1] and in assay [2] were 3.9 nM and 58.1 nM, respectively.

On to `N#Cc1cccc(-c2cc3c(cn2)Oc2c(F)cc(C4=CCOCC4)cc2[C@]32COC(N)=N2)c1` [Example 308, 3-((5S)-2′-amino-7-(3,6-dihydro-2H-pyran-4-yl)-9-fluorospiro[chromeno[2,3-c]pyridine-5,4′-[1,3]oxazol]-3-yl)benzonitrile], for which the IC50 stood at 9.3 nM in assay [1] and 117 nM in assay [2].

With `CC1(COc2cc3c(cc2F)Oc2ccc(-c4cccc(Cl)c4)cc2[C@@]32COC(N)=N2)COC1` [Example 310, (4S)-7′-(3-chlorophenyl)-3′-fluoro-2′-((3-methyl-3-oxetanyl)methoxy)spiro[1,3-oxazole-4,9′-xanthen]-2-amine], the figures for the IC50 in assay [1] and in assay [2] were 3.2 nM and 113 nM, respectively.

For the compound `Cn1cc(-c2cc3c(cc2F)Oc2ccc(-c4cccnc4F)cc2[C@@]32COC(N)=N2)cn1` [Example 311, (4S)-3′-fluoro-7′-(2-fluoro-3-pyridinyl)-2′-(1-methyl-1H-pyrazol-4-yl)spiro[1,3-oxazole-4,9′-xanthen]-2-amine], the IC50 in assay [1] is 3.9 nM; in assay [2] it was 19.5 nM.

For the compound `CC1(C#Cc2cc3c(cc2F)Oc2ccc(-c4cccnc4F)cc2[C@@]32COC(N)=N2)COC1` [Example 312, (4S)-3′-fluoro-7′-(2-fluoro-3-pyridinyl)-2′-((3-methyl-3-oxetanyl)ethynyl)spiro[1,3-oxazole-4,9′-xanthen]-2-amine], the IC50 in assay [1] was 2.5 nM; in assay [2], 30.3 nM.

As for `Cn1cc(-c2cc3c(cc2F)Oc2ccc(-c4cccc(Cl)c4)cc2[C@@]32COC(N)=N2)cn1` [Example 313, (4S)-7′-(3-chlorophenyl)-3′-fluoro-2′-(1-methyl-1H-pyrazol-4-yl)spiro[1,3-oxazole-4,9′-xanthen]-2-amine], the IC50 amounted to 1.8 nM in assay [1] and 78.9 nM in assay [2].

With `COC(C)(C)COc1cnc2c(c1)[C@@]1(COC(N)=N1)c1cc(-c3cccc(F)c3F)ccc1O2` [Example 314, (5R)-7-(2,3-difluorophenyl)-3-(2-methoxy-2-methylpropoxy)spiro[chromeno[2,3-b]pyridine-5,4′-[1,3]oxazol]-2′-amine], the IC50 in assay [1] was determined as 1920 nM; in assay [2], 3660 nM.

For the origin of these results see patent publication US8883782B2, “Spiro-tetracyclic ring compounds as beta-secretase modulators and methods of use” (Amgen Inc., priority 2010, dated 2014).
